IC50 data for 18 compounds are collected here from patent US9000182B2, “2H-imidazol-4-amine compounds and their use as BACE inhibitors” (AstraZeneca AB, priority 2012, dated 2015).

Experiment [1] relates to sAPPβ release in SH-SY5Y cells. The experiment can be described thus: sAPPβ release assay. It is filed as cell-based. The following applies: 17 h incubation. On the procedure: SH-SY5Y cells were cultured in DMEM/F-12 with Glutamax, 10% FCS and 1% non-essential amino acids and cryopreserved and stored at −140° C. at a concentration of 7.5-9.5×10^6 cells per vial. Thaw cells and seed at a conc. of around 10000 cells/well in DMEM/F-12 with Glutamax, 10% FCS and 1% non-essential amino acids to a 384-well tissue culture treated plate, […] cell susp/well. The cell plates were then incubated for 7-24 h at 37° C., 5% CO2. The cell medium was removed, followed by addition of 30 μL compound diluted in DMEM/F-12 with Glutamax, 10% FCS, 1% non-essential amino acids and 1% PeSt to a final conc. of 1% DMSO. The compounds were incubated with the cells for 17 h (overnight) at 37° C., 5% CO2. Meso Scale Discovery (MSD) plates were used for the detection of sAPPβ release. MSD sAPPβ plates were blocked in 1% BSA in Tris wash buffer (40 μL/well) for 1 h on shake at r.t. and washed 1 time in Tris wash buffer (40 μL/well). 20 μL of medium was transferred to the pre-blocked and washed MSD sAPPβ microplates, and the cell plates were further used in an ATP assay to measure cytotoxicity. The MSD plates were incubated with shaking at r.t. for 2 h and the media discarded. 10 μL detection antibody was added (1 nM) per well followed by incubation with shaking at r.t. for 2 h and then discarded. 40 μL Read Buffer was added per well and the plates were read in a SECTOR Imager.

For experiment [2], the target named is T1, human β-Secretase (sBACE-Fc, soluble part AA 1-AA 460) (Homo sapiens (Human), UniProt P56817). The experiment can be described thus: TR-FRET assay. It is filed as biochemical. As to conditions: standard TR-FRET assay (values without footnote a). The protocol: The β-secretase enzyme used in the TR-FRET is prepared as follows:
(§1) The enzyme (truncated form) was diluted to 6 μg/mL (stock 1.3 mg/mL) and the TruPoint BACE1 Substrate to 200 nM (stock 120 μM) in reaction buffer (NaAcetate, chaps, triton x-100, EDTA pH4.5). Enzyme and compound in dimethylsulphoxide (final DMSO concentration 5%) was mixed and pre-incubated for 10 minutes at RT. Substrate was then added and the reaction was incubated for 15 minutes at RT. The reaction was stopped with the addition of 0.35 vol Stop solution (NaAcetate, pH 9). The fluorescence of the product was measured on a Victor II plate reader with excitation wavelengths of 340-485 nm and emission wavelengths of 590-615 nm. […] The dimethylsulphoxide control, instead of test compound, defined the 100% activity level and 0% activity was defined by wells lacking enzyme (replaced with reaction buffer) or by a saturating dose of a known inhibitor, 2-amino-6-[3-(3-methoxyphenyl)phenyl]-3,6-dimethyl-5H-pyrimidin-4-one.

Experiment [3] addresses T1, human β-Secretase (sBACE-Fc, soluble part AA 1-AA 460). Put plainly: Diluted TR-FRET assay. It is filed as biochemical. On the procedure:
as §1, with “The enzyme (truncated form) was diluted to 6 μg/mL (stock 1.3 mg/mL) and the TruPoint BACE1 Substrate to 200 nM (stock 120 μM) in reaction buffer (NaAcetate, chaps, triton x-100, EDTA pH4.5).” left out, “Substrate was then added and the reaction was incubated for 15 minutes at RT.” left out
Background: Time-resolved FRET reads energy transfer from a long-lived donor to a nearby acceptor.

Where [4] appears, read: IC50 from the diluted FRET assay (footnote a): 50 times less enzyme, 6.5 h reaction time.

T1 sequence (P56817 22-460): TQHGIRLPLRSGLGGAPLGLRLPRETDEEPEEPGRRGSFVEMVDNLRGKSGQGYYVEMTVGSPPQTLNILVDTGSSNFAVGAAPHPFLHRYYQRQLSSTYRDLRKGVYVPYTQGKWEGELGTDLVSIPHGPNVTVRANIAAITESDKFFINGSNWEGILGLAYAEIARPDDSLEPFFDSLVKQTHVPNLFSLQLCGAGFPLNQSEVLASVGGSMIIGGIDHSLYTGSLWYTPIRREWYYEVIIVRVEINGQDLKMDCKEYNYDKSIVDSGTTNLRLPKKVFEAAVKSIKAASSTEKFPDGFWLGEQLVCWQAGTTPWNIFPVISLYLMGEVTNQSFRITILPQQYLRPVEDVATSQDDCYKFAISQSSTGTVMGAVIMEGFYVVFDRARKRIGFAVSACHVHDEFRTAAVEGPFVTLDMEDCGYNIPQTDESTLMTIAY

For the compound `CC[C@@H](C)Oc1ccc2c(c1)C1(N=C(C)C(N)=N1)[C@]1(CC[C@H](OC)CC1)C2` (stereo partly drawn) [Example 18, (1r,4r)-6′-[(28)-Butan-2-yloxy]-4-methoxy-5″-methyl-3′H-dispiro[cyclohexane-1,2′-indene-1′,2″-imidazol]-4″-amine], in experiment [1] (Homo sapiens), inhibition was half-maximal at 16 nM (IC50).
With `CO[C@H]1CC[C@]2(CC1)Cc1ccc(OCCC(F)(F)F)cc1C21N=C(C)C(N)=N1` (stereo partly drawn) [Example 10, (1r,4r)-4-Methoxy-5″-methyl-6′-(3,3,3-trifluoropropoxy)-3′H-dispiro[cyclohexane-1,2′-indene-1′,2″-imidazol]-4″-amine], the 50% inhibitory concentration (IC50) (as a rule, the midpoint of a concentration-inhibition curve) in experiment [1] (Homo sapiens) was 0.6 nM.
In experiment [1], `CO[C@H]1CC[C@]2(CC1)Cc1ccc(OCCC(F)(F)F)cc1[C@@]21N=C(C)C(N)=N1` (single isomer, unassigned; isomer 1) [11, isomer 1] had an IC50 of 0.7 nM.
Take `CO[C@H]1CC[C@]2(CC1)Cc1ccc(O)cc1[C@@]21N=C(C)C(N)=N1` [Example 19, (1r,1′R,4R)-4″-Amino-4-methoxy-5″-methyl-3′H-dispiro[cyclohexane-1,2′-indene-1′,2″-imidazol]-6′-ol]: half-maximal inhibition in experiment [2] (IC50) was put at 1300 nM.
`CC1=N[C@@]2(N=C1N)c1cc(OCC(C)C)ccc1C[C@]21CC[C@@H](O)CC1` (single isomer, unassigned; isomer 1) [2, isomer 1] returned an IC50 in experiment [2] of 13 nM.
Regarding `CC1=N[C@@]2(N=C1N)c1cc(-c3cc(Cl)cc(C#N)c3)ccc1C[C@]21CC[C@@H](O)CC1` (single isomer, unassigned; isomer 2) [15, isomer 2], the values for the 50% inhibitory concentration (IC50) in experiment [2] and in experiment [1] were 780 nM and 216 nM, respectively.
Turning to `CO[C@H]1CC[C@]2(CC1)Cc1ccc(OCC(C)(F)F)cc1C21N=C(C)C(N)=N1` (stereo partly drawn) [Example 3, (1r,4r)-6′-(2,2-Difluoropropoxy)-4-methoxy-5″-methyl-3′H-dispiro[cyclohexane-1,2′-indene-1′,2″-imidazol]-4″-amine], the IC50 in experiment [3] amounted to 6.7 nM; in experiment [1] (Homo sapiens), 2.4 nM.
As for `CC1=N[C@]2(N=C1N)c1cc(-c3cc(Cl)cc(C#N)c3)ccc1C[C@]21CC[C@@H](O)CC1` (single isomer, unassigned; isomer 1) [15, isomer 1], the values for the IC50 in experiment [3] (setting [4]) and in experiment [1] were 3.2 nM and 1.6 nM, respectively.
On to `CC1=N[C@]2(N=C1N)c1cc(OCCCF)ccc1C[C@]21CC[C@@H](OC(F)F)CC1` (single isomer, unassigned; isomer 1) [13, isomer 1], for which the 50% inhibitory concentration (IC50) in experiment [3] (setting [4]) was 3 nM; in experiment [1] it was 1.6 nM.
Compound `CO[C@H]1CC[C@]2(CC1)Cc1ccc(C#CC3CCC3)cc1C21N=C(C)C(N)=N1` (mixture of isomers) [Example 6, (1r,4r)-6′-(Cyclobutylethynyl)-4-methoxy-5″-methyl-3′H-dispiro[cyclohexane-1,2′-indene-1′,2″-imidazol]-4″-amine] displayed a 50% inhibitory concentration (IC50) in experiment [1] (Homo sapiens) of 2.1 nM.
For the compound `CO[C@H]1CC[C@]2(CC1)Cc1ccc(OCC(C)F)cc1C21N=C(C)C(N)=N1` (stereo partly drawn) [Example 14, (1r,4r)-6′-(2-Fluoropropoxy)-4-methoxy-5″-methyl-3′H-dispiro[cyclohexane-1,2′-indene-1′,2″-imidazol]-4″-amine], the IC50 in experiment [3] was determined as 6.7 nM; in experiment [1] (Homo sapiens) it was 2.5 nM.
Regarding `CC1=N[C@@]2(N=C1N)c1cc(Br)ccc1C[C@]21CC[C@@H](O)CC1` (single isomer, unassigned; isomer 1) [5, isomer 1], the IC50 in experiment [2] turned out to be 270 nM; in experiment [1], 96 nM.
In experiment [2], `CC1=NC2(N=C1N)c1cc(Br)ccc1C[C@]21CC[C@@H](OC(C)C)CC1` (stereo partly drawn) [Example 16, (1r,4r)-6′-Bromo-5″-methyl-4-(propan-2-yloxy)-3′H-dispiro[cyclohexane-1,2′-indene-1′,2″-imidazol]-4″-amine] gave an IC50 of 3700 nM.
For the compound `CO[C@H]1CC[C@]2(CC1)Cc1ccc(C#CC(C)C)cc1C21N=C(C)C(N)=N1` (mixture of isomers) [Example 8, (1r,4r)-4-Methoxy-5″-methyl-6′-(3-methylbut-1-yn-1-yl)-3′H-dispiro[cyclohexane-1,2′-indene-1′,2″-imidazol]-4″-amine], the IC50 in experiment [1] (Homo sapiens) amounted to 1.6 nM.
In the case of `CC1=N[C@@]2(N=C1N)c1cc(OCCCF)ccc1C[C@]21CC[C@@H](OC(F)F)CC1` (single isomer, unassigned; isomer 2) [13, isomer 2], in experiment [2], the IC50 was 2900 nM.
`CO[C@H]1CC[C@]2(CC1)Cc1ccc(C#CC3CCC3)cc1[C@]21N=C(C)C(N)=N1` (single isomer, unassigned; isomer 1) [7, isomer 1] came in with an IC50 in experiment [1] of 2 nM.
Regarding `CO[C@H]1CC[C@]2(CC1)Cc1ccc(C#CC(C)C)cc1[C@]21N=C(C)C(N)=N1` (single isomer, unassigned; isomer 1) [9, isomer 1], the half-inhibitory concentration (IC50) in experiment [1] was 0.7 nM.
In turn, `CC1=NC2(N=C1N)c1cc(OCCCF)ccc1C[C@]21CC[C@@H](OC(C)C)CC1` (stereo partly drawn) [Example 17, (1r,4r)-6′-(3-Fluoropropoxy)-5″-methyl-4-(propan-2-yloxy)-3′H-dispiro[cyclohexane-1,2′-indene-1′,2″-imidazol]-4″-amine] showed an IC50 in experiment [2] of 250 nM.
